How the values were obtained:
PC3 cells = assay: EB1 Comet (microtubule disruption) assay; format: cell-based, human; conditions: 1 hour treatment; for minimal effective concentration: Homo sapiens, PC-3, 1 h, read-out: EB1 pLAC (converted)
Summary of the method: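 PC3 human prostate cancer cells exposed to compound for 1 h at 37 °C (0.6% DMSO final), methanol-fixed, immunostained for Eb1 and imaged at 20×. Value is the lowest active concentration (LAC): the concentration at which Eb1 foci are absent in at least 50% of treated cells.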

TANK-2 enzyme = target: T1, TANK-2 enzyme (Homo sapiens, UniProt Q9H2K2); assay: In vitro Scintillation Proximity Assay (SPA) for TANK-2 inhibitory activity; format: biochemical; conditions: read-out: in vitro SPA assay TANK-2 pIC50 (converted)
T1 construct: made in house
T1 sequence (Q9H2K2 1-1166): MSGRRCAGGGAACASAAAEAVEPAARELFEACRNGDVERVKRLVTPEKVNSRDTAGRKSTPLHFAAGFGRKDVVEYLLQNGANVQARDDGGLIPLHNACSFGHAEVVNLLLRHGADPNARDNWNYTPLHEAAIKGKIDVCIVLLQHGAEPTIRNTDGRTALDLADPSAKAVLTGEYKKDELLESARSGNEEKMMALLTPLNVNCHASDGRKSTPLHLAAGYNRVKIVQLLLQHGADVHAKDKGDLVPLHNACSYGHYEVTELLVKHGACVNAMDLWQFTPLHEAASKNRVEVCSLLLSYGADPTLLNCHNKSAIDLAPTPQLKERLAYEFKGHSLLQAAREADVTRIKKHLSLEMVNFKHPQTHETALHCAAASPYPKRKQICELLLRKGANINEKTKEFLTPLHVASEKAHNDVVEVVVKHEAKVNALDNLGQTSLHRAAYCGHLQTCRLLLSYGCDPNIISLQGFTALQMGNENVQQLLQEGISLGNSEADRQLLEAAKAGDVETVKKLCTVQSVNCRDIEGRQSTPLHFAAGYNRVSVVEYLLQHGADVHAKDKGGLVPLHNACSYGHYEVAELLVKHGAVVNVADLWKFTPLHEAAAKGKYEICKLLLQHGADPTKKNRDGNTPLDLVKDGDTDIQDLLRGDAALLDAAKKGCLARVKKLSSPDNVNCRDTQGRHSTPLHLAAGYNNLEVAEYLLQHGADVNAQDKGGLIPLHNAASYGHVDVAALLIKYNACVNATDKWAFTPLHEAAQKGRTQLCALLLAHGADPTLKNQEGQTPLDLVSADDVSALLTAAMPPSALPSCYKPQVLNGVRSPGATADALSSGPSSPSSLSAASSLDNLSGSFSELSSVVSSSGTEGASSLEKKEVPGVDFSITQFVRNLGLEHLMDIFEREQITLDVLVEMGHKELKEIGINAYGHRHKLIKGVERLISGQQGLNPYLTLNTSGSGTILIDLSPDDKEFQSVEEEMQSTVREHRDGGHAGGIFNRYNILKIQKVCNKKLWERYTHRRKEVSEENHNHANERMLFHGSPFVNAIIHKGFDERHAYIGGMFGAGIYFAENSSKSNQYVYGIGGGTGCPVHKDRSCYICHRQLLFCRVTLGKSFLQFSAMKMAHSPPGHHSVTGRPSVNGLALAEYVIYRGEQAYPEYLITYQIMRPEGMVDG
Summary of the method: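 TANK-2 (8 μg/ml final) auto-poly(ADP-ribosyl)ation with [3H]-NAD+/NAD donor was run in Ni flash plates in Tris/HCl pH 7.4 buffer with DTT and MgCl2, 120 min at room temperature, then stopped with excess NAD and scintillation-counted. Blank-corrected cpm was expressed as % of enzyme control, and IC50 was linearly interpolated and reported as pIC50.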

Row | IC50 (TANK-2 enzyme) [nM] | SMILES | minimal effective concentration (PC3 cells) [µM] | EB1 pLAC (PC3 cells)
1 | 794 | Cc1cc2ccc(C(C)(C#N)C3CCc4c(C#N)cccc43)cc2[nH]c1=O (racemic) [Compound 393] | 10 | –
2 | 200 | CCc1cc2ccc([C@@](C)(C#N)CN(C)Cc3ccc(C#N)cc3)cc2[nH]c1=O (single isomer, unassigned) [Compound 253] | 0.1 | –
3 | 2510 | CCc1cc2ccc(C(C)(C#N)C3CCc4ccc(Br)cc43)cc2[nH]c1=O (single isomer, unassigned) [Compound 380] | – | 6
4 | 1260 | CCc1cc2ccc(C(C)(C#N)C3CCc4ccc(Br)cc43)cc2[nH]c1=O (single isomer, unassigned) [Compound 381] | – | 7
5 | 631 | Cc1cc2ccc([C@](C)(C#N)C3CCc4cccnc43)cc2[nH]c1=O (single isomer, unassigned) [Compound 388] | > 10 | –
6 | 1000 | CCc1cc2ccc([C@](C)(C#N)[C@H]3CCOc4ccccc43)cc2[nH]c1=O (single isomer, unassigned) [Compound 394] | 3.16 | –
7 | 501 | CCc1cc2ccc([C@@](C)(C#N)[C@H]3CCOc4ccccc43)cc2[nH]c1=O (single isomer, unassigned) [Compound 395] | 0.316 | –
8 | 158 | CCc1cc2ccc([C@](C)(C#N)C[C@H]3CCc4ccccc4O3)cc2[nH]c1=O (single isomer, unassigned) [Compound 396] | – | –
9 | 50.1 | CCc1cc2ccc(C(C)(C#N)Cc3cccc(-c4cnn(C)c4)c3)cc2[nH]c1=O (stereo not drawn) [Compound 17] | 3.16 | –
10 | 251 | CCc1cc2ccc(C(C)(C#N)Cc3cccc(-c4ccccc4)c3)cc2[nH]c1=O (stereo not drawn) [Compound 18] | 1 | –
11 | 158 | CCc1cc2ccc(C(C)(C#N)Cc3cccc(I)c3)cc2[nH]c1=O (stereo not drawn) [Compound 19] | 0.316 | –
12 | 63.1 | CCc1cc2ccc(C(C)(C#N)Cc3cccc(N(C)C)c3)cc2[nH]c1=O (stereo not drawn) [Compound 20] | 0.1 | –
13 | 63.1 | CCc1cc2ccc(C(C)(C#N)Cc3cccc(N4CCOCC4)c3)cc2[nH]c1=O (stereo not drawn) [Compound 21] | 1 | –
14 | 50.1 | CCc1cc2ccc(C(C)(C#N)Cc3cccc(O)c3)cc2[nH]c1=O (stereo not drawn) [Compound 22] | – | –
15 | 200 | CCc1cc2ccc(C(C)(C#N)Cc3cccc(OCc4ccccc4)c3)cc2[nH]c1=O (stereo not drawn) [Compound 23] | 10 | –
16 | 79.4 | CCc1cc2ccc(C(C)(C#N)Cc3cccc(OCCOC)c3)cc2[nH]c1=O (stereo not drawn) [Compound 24] | 1 | –
17 | 1260 | CCC(=O)c1cccc(CC(C)(C#N)c2ccc3cc(C)c(=O)[nH]c3c2)c1 (stereo not drawn) [Compound 173] | 0.316 | –
18 | 200 | CCc1cc2ccc(C(C)(C#N)Cc3cc(C)cc(C#N)c3)cc2[nH]c1=O (stereo not drawn) [Compound 174] | 0.1 | –
19 | 398 | CCc1cc2ccc(C(C)(C#N)Cc3cccc(S(F)(F)(F)(F)F)c3)cc2[nH]c1=O (stereo not drawn) [Compound 177] | 1 | –
20 | 158 | CCc1cc2ccc(C(C)(C#N)Cc3cccc(C4(N)CC4)c3)cc2[nH]c1=O (stereo not drawn) [Compound 180] | 3.16 | –
21 | 20 | CCc1cc2ccc(C(C)(C#N)CCCN(C)C(=O)c3ccc(F)cc3)cc2[nH]c1=O (stereo not drawn) [Compound 188] | 1 | –
22 | 251 | CCc1cc2ccc([C@](C)(C#N)CN(C)Cc3ccc(C#N)cc3)cc2[nH]c1=O [Compound 190] | 10 | –
23 | 1580 | Cc1cc2ccc(C(C)(C#N)Cc3cccc(Oc4ncccn4)c3)cc2[nH]c1=O (stereo not drawn) [Compound 191] | 0.316 | –
24 | 631 | Cc1cc2ccc(C(C)(C#N)Cc3cccc(Oc4ccccc4)n3)cc2[nH]c1=O (stereo not drawn) [Compound 193] | 0.1 | –
25 | 39.8 | CCc1cc2cc(C)c(C(C)(C#N)Cc3cccc(C#N)n3)cc2[nH]c1=O (stereo not drawn) [Compound 208] | – | –

Row | IC50 (TANK-2 enzyme) [nM] | SMILES | minimal effective concentration (PC3 cells) [µM] | EB1 pLAC (PC3 cells)
26 | 126 | CCc1cc2ccc(C(C)(C#N)Cc3ccc(Cl)nc3Cl)cc2[nH]c1=O (stereo not drawn) [Compound 212] | – | –
27 | 1000 | COc1cc2ccc(C(C)(C#N)Cc3cccc(C#N)n3)cc2[nH]c1=O (stereo not drawn) [Compound 218] | 0.316 | –
28 | 100 | CCc1cnc(OCCC(C)(C#N)c2ccc3cc(CC)c(=O)[nH]c3c2)nc1 (stereo not drawn) [Compound 222] | 10 | –
29 | 794 | CCc1cc2ccc(C(C)(C#N)CCOc3nccc(OC)n3)cc2[nH]c1=O (stereo not drawn) [Compound 223] | 1 | –
30 | 200 | CCc1cc2ccc(C(C)(C#N)Cc3ccc(OC)nc3Cl)cc2[nH]c1=O (stereo not drawn) [Compound 224] | 0.316 | –
31 | 126 | CCc1cc2ccc(C(C)(C#N)Cc3ccc(Cl)nc3OC)cc2[nH]c1=O (stereo not drawn) [Compound 225] | 1 | –
32 | 200 | CCc1cc2ccc(C(C)(C#N)Cc3cccc(N4CCCC4)n3)cc2[nH]c1=O (stereo not drawn) [Compound 226] | 3.16 | –
33 | 316 | Cc1cc2ccc(C(C)(C#N)Cc3cccc(C#N)n3)cc2[nH]c1=O (stereo not drawn) [Compound 227] | 1 | –
34 | 63.1 | CCc1cc2ccc(C(C)(C#N)Cc3cc(OC)cc(OC)n3)cc2[nH]c1=O (stereo not drawn) [Compound 232] | 0.1 | –
35 | 31.6 | CCc1cc2ccc(C(C)(C#N)Cc3cc(C#N)cc4c3OCC4)cc2[nH]c1=O (stereo not drawn) [Compound 236] | 0.316 | –
36 | 251 | CCc1cc2ccc(C(C)(C#N)Cc3cc4ccccc4nn3)cc2[nH]c1=O (stereo not drawn) [Compound 238] | 1 | –
37 | 6310 | Cc1cc2ccc([C@@](C)(C#N)[C@@H]3CCc4cc(Br)ccc43)cc2[nH]c1=O [Compound 240] | > 10 | –
38 | 6310 | Cc1cc2ccc([C@@](C)(C#N)[C@H]3CCc4cc(Br)ccc43)cc2[nH]c1=O [Compound 241] | 0.316 | –
39 | 7940 | Cc1cc2ccc([C@](C)(C#N)[C@@H]3CCc4cc(Br)ccc43)cc2[nH]c1=O [Compound 242] | 0.1 | –
40 | 7940 | Cc1cc2ccc(C(C)(C#N)C3CCc4cc(Br)ccc43)cc2[nH]c1=O (stereo not drawn) [Compound 244] | – | 7
41 | 1260 | Cc1cc2ccc(C(C)(C#N)C3CCc4c(Br)cccc43)cc2[nH]c1=O (stereo not drawn) [Compound 248] | 0.316 | –
42 | 20 | CCc1cc2ccc(C(C)(C#N)Cc3cc(C)nc(C#N)c3)cc2[nH]c1=O (stereo not drawn) [Compound 328] | – | –
43 | 398 | CCc1cc2ccc(C(C)(C#N)Cc3ccnc(F)c3)cc2[nH]c1=O (stereo not drawn) [Compound 330] | – | –
44 | 501 | CCc1cc2ccc(C(C)(C#N)CN3CCN(c4ncc(Br)cn4)CC3)cc2[nH]c1=O (stereo not drawn) [Compound 374] | – | –
45 | 2000 | Cc1cc2ccc([C@@](C)(C#N)[C@@H]3CCCc4ccccc43)cc2[nH]c1=O [Compound 382] | – | –
46 | 316 | CCc1cc2ccc(C(C#N)(CC)Cc3cccc(CN)c3)cc2[nH]c1=O (stereo not drawn) [Compound 390] | – | –
47 | 2510 | CCc1cc2ccc(C(C#N)(CC)C3CCc4ccc(OC)cc43)cc2[nH]c1=O (stereo not drawn) [Compound 403] | – | –
48 | 5010 | Cc1cc2ccc([C@@](C)(C#N)[C@H]3CCc4ccc(Br)cc43)cc2[nH]c1=O [Compound 405] | – | –
49 | 5010 | Cc1cc2ccc([C@](C)(C#N)[C@@H]3CCc4ccc(Br)cc43)cc2[nH]c1=O [Compound 406] | – | –
50 | 6310 | Cc1cc2ccc([C@](C)(C#N)[C@H]3CCc4ccc(Br)cc43)cc2[nH]c1=O [Compound 407] | – | –

Reference: patent US8778966B2, “Quinolinone derivatives as PARP and tank inhibitors” (Janssen Pharmaceutica, NV, priority 2007, dated 2014)
